From the supplement of paper PMC13380429

Columns and labels:
Settings in all cases: 72 h
Caco-2 [1] = test: cell viability relative to DMSO; higher = less toxic
Calu-3 [2] = test: as above
HepG2 [3] = test: as above
U2OS [4] = test: as above
Vero E6 [5] = test: as above
Caco-2 [6] = test: relative viability EC50 (midpoint between 100% and the lowest measured viability); higher = less toxic
Calu-3 [7] = test: as above
HepG2 [8] = test: as above
U2OS [9] = test: as above
Vero E6 [10] = test: as above
Caco-2 [11] = test: drug sensitivity score (DSS) for viability; higher = more toxic; extreme values may be limits of the assay
Calu-3 [12] = test: as above
HepG2 [13] = test: as above
U2OS [14] = test: as above
Vero E6 [15] = test: as above

Structure (SMILES)	cell viability (Caco-2 [1]; 1 nM) [%]	cell viability (Caco-2 [1]; 10 nM) [%]	cell viability (Caco-2 [1]; 100 nM) [%]	cell viability (Caco-2 [1]; 1000 nM) [%]	cell viability (Caco-2 [1]; 10000 nM) [%]	cell viability (Calu-3 [2]; 1 nM) [%]	cell viability (Calu-3 [2]; 10 nM) [%]	cell viability (Calu-3 [2]; 100 nM) [%]	cell viability (Calu-3 [2]; 1000 nM) [%]	cell viability (Calu-3 [2]; 10000 nM) [%]	cell viability (HepG2 [3]; 1 nM) [%]	cell viability (HepG2 [3]; 10 nM) [%]	cell viability (HepG2 [3]; 100 nM) [%]	cell viability (HepG2 [3]; 1000 nM) [%]	cell viability (HepG2 [3]; 10000 nM) [%]	cell viability (U2OS [4]; 1 nM) [%]	cell viability (U2OS [4]; 10 nM) [%]	cell viability (U2OS [4]; 100 nM) [%]	cell viability (U2OS [4]; 1000 nM) [%]	cell viability (U2OS [4]; 10000 nM) [%]	cell viability (Vero E6 [5]; 1 nM) [%]	cell viability (Vero E6 [5]; 10 nM) [%]	cell viability (Vero E6 [5]; 100 nM) [%]	cell viability (Vero E6 [5]; 1000 nM) [%]	cell viability (Vero E6 [5]; 10000 nM) [%]	relative viability EC50 (Caco-2 [6]) [µM]	relative viability EC50 (Calu-3 [7]) [µM]	relative viability EC50 (HepG2 [8]) [µM]	relative viability EC50 (U2OS [9]) [µM]	relative viability EC50 (Vero E6 [10]) [µM]	drug sensitivity score (Caco-2 [11])	drug sensitivity score (Calu-3 [12])	drug sensitivity score (HepG2 [13])	drug sensitivity score (U2OS [14])	drug sensitivity score (Vero E6 [15])
O=C(O)C(Cc1ccccc1[N+](=O)[O-])=NNc1nc(-c2ccc(Cl)c(Cl)c2)cs1 [4EGI-1]	87.1	103	98.1	112	84.8	98.1	100	97.7	104	96.7	101	104	102	91.6	45.5	94.5	96.7	93.8	93.7	93.1	97.9	95.3	96.7	92	100	> 10	> 10	1.96	> 10	> 10	0.1	0	4.3	0	0
O=[N+]([O-])c1cccc2cn[nH]c12 [7-nitroindazole]	100	94.4	97.1	106	97.8	102	101	99.4	97.6	93.4	102	96.3	88.2	99.2	98.1	99.7	102	99.8	104	97.9	103	96.5	99.6	98.7	98.7	> 10	> 10	> 10	> 10	> 10	0	0	0	0	0
Nc1ncnc2c1nc(Br)n2[C@@H]1O[C@@H]2COP(=O)(O)O[C@H]2[C@H]1O [8-bromo-cAMP]	106	95.8	97.8	98.5	81.5	92.8	104	95.9	103	95.8	95.2	96.5	93.1	98.2	85.7	102	96.8	105	99	102	100	102	103	102	96	> 10	> 10	> 10	> 10	> 10	0.7	0	0	0	0
Cc1c(C(=O)NN2CCOCC2)nn(-c2ccc(Cl)cc2Cl)c1-c1ccc(I)cc1 [AM-281]	96.8	100	96.2	96.2	107	102	113	104	94.5	88.1	105	95.7	102	101	103	96.9	101	95.5	100	100	98.3	96.6	98.4	94.5	106	> 10	> 10	> 10	> 10	> 10	0	0.2	0	0	0
C[C@H]1CC[C@H](n2c3cnccc3c3cnc(Nc4ccc5c(n4)CCN(C(=O)CO)C5)nc32)CC1 [AMG-925]	112	95.5	96.4	95.3	91.3	95.1	109	100	109	93	105	90.3	113	100	101	98.8	100	97.1	99.4	96.7	99.6	92.8	96.1	95.9	104	> 10	> 10	> 10	> 10	> 10	0	0	0	0	0
Cc1ccc(S(=O)(=O)NCc2ccccc2)cc1 [BTS]	95.1	99.3	101	90	99.9	98.1	100	106	102	112	102	110	95.3	110	107	96.7	97.4	107	98	102	104	101	91.7	95.9	93.4	> 10	> 10	> 10	> 10	> 10	0	0	0	0	0
